Consider one compound from BindingDB's records for doi:10.1016/s0960-894x(01)00185-8 (Dupont Pharmaceuticals, 2001).

The term IC50 denotes the concentration needed to halve the response being measured. Higher therefore signals weaker potency in that assay.

Structures are written as SMILES.

Assay [1] concerns the target Cyclin-dependent kinase 2/G1/S-specific cyclin-E1 (Homo sapiens, UniProt P24941). As to the kind of experiment: Kinase Inhibition Assay.
Procedure: (§1) The enzyme was assayed with substrate GST-Rb in the presence of 50 mM ATP/[gamma-32P] ATP, and capturing the 32-P labeled reaction products on GSH-Sepharose beads. […] Use of 32P-labeled ATP allows this transfer to be monitored by scintillation counting.
In assay [2] the target is Cyclin-dependent kinase 4/G1/S-specific cyclin-D1 (Homo sapiens, UniProt P11802). As to the kind of experiment: Kinase Inhibition Assay.
Cyclin-dependent kinase 4/G1/S-specific cyclin-D1, sequence (P11802 whole entry): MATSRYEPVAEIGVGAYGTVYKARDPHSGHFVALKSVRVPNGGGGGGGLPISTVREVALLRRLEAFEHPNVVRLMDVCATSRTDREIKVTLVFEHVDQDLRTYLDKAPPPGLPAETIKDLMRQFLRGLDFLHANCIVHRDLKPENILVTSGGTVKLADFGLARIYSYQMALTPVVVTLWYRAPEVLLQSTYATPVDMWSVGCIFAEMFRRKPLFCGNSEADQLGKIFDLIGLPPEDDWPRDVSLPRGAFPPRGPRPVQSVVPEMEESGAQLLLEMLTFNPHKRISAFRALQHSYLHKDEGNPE
Cyclin-dependent kinase 4/G1/S-specific cyclin-D1, sequence (P24385 whole entry, further chain): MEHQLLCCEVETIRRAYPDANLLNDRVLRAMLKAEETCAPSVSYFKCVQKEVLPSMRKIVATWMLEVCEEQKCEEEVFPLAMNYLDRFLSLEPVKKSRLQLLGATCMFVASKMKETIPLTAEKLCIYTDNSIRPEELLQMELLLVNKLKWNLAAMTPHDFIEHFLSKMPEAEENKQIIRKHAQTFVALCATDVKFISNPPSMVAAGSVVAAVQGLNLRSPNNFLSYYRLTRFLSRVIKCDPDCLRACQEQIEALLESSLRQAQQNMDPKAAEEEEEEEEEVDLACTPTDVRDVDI
Procedure: as §1

For `CC(C)(C)Nc1nc(C(F)(F)F)nc2ccc(-c3cccc(-c4cccnc4)c3)cc12` [N-tert-butyl-6-[3-(pyridin-3-yl)phenyl]-2-(trifluoromethyl)quinazolin-4-amine], the IC50 in assay [1] worked out at 1.2 µM; in assay [2], 8.3 µM.
